From paper PMC5970223, “Multiplexed profiling of GPCR activities by combining split TEV assays and EXT-based barcoded readouts” (Scientific Reports, 2018)
Counter-ions that a name gives are not always drawn. Like-named read-outs stand apart in the source and are kept apart here. Each block holds one compound with its values, some of them ahead of it.

What was measured:
[1] = test system: T1, α-adrenergic receptor ADRA2C; test: multiplexed GPCRprofiler assay in U2OS cells; format: cell-based, human; settings: for drug-induced effect, GPCRprofiler: Supplementary Table S4, ADRA2C; for antagonistic effect on ADRA2C: U2OS cells, drug 1 h before agonist-mix (1 µM each)
T1 construct: ORFs of GPCRs were PCR amplified; expressed in transfected cells; host or cells: U2OS
Procedure: (§1) Two hours after transfection, all cell populations were pooled, mixed, and evenly divided into fractions for plating onto assay dishes (Fig. 2a). The cells were cultured and stimulated under identical conditions for agonist or antagonist assays as initially described for GPCR split TEV assays (Supplementary Fig. S1a,b).
(§2) After cell lysis, RNA from each sample was isolated and converted into cDNA by reverse transcription. […] This permits the mixing of all samples and sequencing of all pooled samples using a single sequencing run (Fig. 2b). The sample barcodes enable tracing experimental conditions, whereas the read counts per EXTs serve as quantitative measurements for the corresponding GPCRs. […] From the normalized data the fold changes of receptor activities were finally calculated.
(§3) Next, we applied the multiplexed GPCRprofiler to measure the effects of GPCR targeting drugs on receptor activity. […] In addition, binding affinities to α-adrenergic receptors and the histamine receptor HRH1 were described for paliperidone using biochemical assays[38]–[40]. […] To address any changes in GPCR activities caused by the selected drugs, receptors were stimulated for 6 h applying two different parameters. First, to monitor agonistic effects, GPCRs were treated with the drugs only (Supplementary Fig. S1a). Second, to measure antagonistic effects, GPCRs were treated both with the drugs and the corresponding agonist (Supplementary Fig. S1b). This experimental design therefore allows to identify potential antagonistic effects of agonists and vice versa. For a profiling experiment, drugs were applied at increasing concentrations. […] Alternatively, a drug-induced inhibition of agonist-mediated GPCR activation specifies the drug as antagonist.
(§4) Cells were resuspended in culture medium without antibiotics at a density of 1.5 × 10^6 cells/ml (U2OS) or 3 × 10^6 cells/ml (PC12). […] Transfection-mixes were added to cell suspensions and incubated for 2 h at 37 °C without shaking. Suspensions were centrifuged for 5 min at 900 rpm and resuspended in culture medium to remove transfection reagents. All transfection samples were combined within one pool and plated on multiple wells of 6-well plates and incubated for 24 h at 37 °C. Afterwards, cells were starved for 17–18 h and then treated with compounds for 6 h in duplicates. After compound treatment cells were washed with PBS and 500 µl RLT lysis buffer was applied for cell lysis. Lysates were processed for sequencing as described below.
(§5) RNA was additional in solution treated with Turbo DNase (Ambion) for 30 min at 37 °C and repurified over an RNeasy column. First-strand cDNA synthesis was performed with 1 µg total RNA using superscript III reverse transcriptase (Invitrogen) and 120 pmol of a random nanomer primer. […] On order to differentiate different samples 13mer barcodes were introduced between 5′ Ion adapter and target sequence. All processed samples of an experiment were combined within one pool and purified using PCR clean-up kit (Macherey-Nagel).
(§6) Raw sequencing data analyses were done by using BLAST algorithm and in-house developed R scripts.

histamine receptor HRH1 = test system: T2, histamine receptor HRH1; test: multiplexed GPCRprofiler assay in U2OS cells; format: cell-based, human; settings: for drug-induced effect, GPCRprofiler: Supplementary Table S4, HRH1; for antagonistic effect on HRH1: U2OS cells, drug 1 h before agonist-mix (1 µM each)
T2 construct: ORFs of GPCRs were PCR amplified; expressed in transfected cells; host or cells: U2OS
Procedure: as §1, §2, §3, §4, §5, §6

serotonin receptor HTR1A = test system: T3, serotonin receptor HTR1A; test: multiplexed GPCRprofiler assay in U2OS cells; format: cell-based, human; settings: multiplexed GPCR assay
T3 construct: ORFs of GPCRs were PCR amplified; HA-Flag signal peptide (N); expressed in transfected cells; host or cells: U2OS
Procedure: as §1, §2, §3, §4, §5, §6

serotonin receptor HTR2A [2] = molecular target: T4, serotonin receptor HTR2A (Homo sapiens, UniProt P28223); test: multiplexed GPCRprofiler assay in U2OS cells; format: cell-based; settings: for agonistic effect on HTR2A (drug alone): drug only for 6 h, subtle = less than 2-fold change, three consecutive increases
T4 sequence (P28223 81-471 limits assumed): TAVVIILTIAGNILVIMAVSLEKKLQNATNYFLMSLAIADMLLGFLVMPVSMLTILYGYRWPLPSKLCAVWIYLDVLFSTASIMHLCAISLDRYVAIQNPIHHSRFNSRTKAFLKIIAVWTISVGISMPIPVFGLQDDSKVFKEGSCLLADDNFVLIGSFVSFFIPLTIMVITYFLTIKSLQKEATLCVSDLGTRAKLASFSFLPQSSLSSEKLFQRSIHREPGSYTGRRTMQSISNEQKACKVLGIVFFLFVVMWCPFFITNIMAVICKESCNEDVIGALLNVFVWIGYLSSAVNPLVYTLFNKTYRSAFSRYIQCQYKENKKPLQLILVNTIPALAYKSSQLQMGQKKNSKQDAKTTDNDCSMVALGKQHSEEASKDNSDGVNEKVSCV
Procedure: as §1, §2
(§7) In addition to the stimulation with the single compounds, a compound-mixture (mix) of all agonists was tested. The first set of experiments were carried out in the human osteosarcoma cell line U2OS. We normalized the raw sequencing data to total read numbers of sample codes, followed by averaging reads of internal and external calibrator EXTs as described above (Supplementary Fig. S4).
as §3
Cells were resuspended in culture medium without antibiotics at a density of 1.5 × 10^6 cells/ml (U2OS) or 3 × 10^6 cells/ml (PC12). […] Transfection-mixes were added to cell suspensions and incubated for 2 h at 37 °C without shaking. Suspensions were centrifuged for 5 min at 900 rpm and resuspended in culture medium to remove transfection reagents.

HTR2A [3] = settings: GF62 cells; cited from earlier work
HRH1 = settings: cited from earlier work; for drug effect, IUPHAR: ref IUPHAR, Supplementary refs 2,3, 7, 10
ADRA2C = test system: ADRA2C; set-up: method as in PubChem, Supplementary refs 1, 17; settings: ref PubChem, Supplementary refs 1, 17; cited from earlier work
ADRA2B = test system: ADRA2B; set-up: method as in PubChem, Supplementary refs 1, 6, 17; settings: ref PubChem, Supplementary refs 1, 6, 17; cited from earlier work
HTR2A [4] = settings: cited from earlier work; for drug effect, PubChem: ref PubChem, Supplementary refs 1, 4–6, 8,9
serotonin receptor HTR2A [5] = molecular target: T4, serotonin receptor HTR2A; settings: PC12 cells
Procedure: as §1, §2
as §4, with “After compound treatment cells were washed with PBS and 500 µl RLT lysis buffer was applied for cell lysis. Lysates were processed for sequencing as described below.” left out

serotonin receptor HTR5A = settings: U2OS cells (not in PC12 cells)
Procedure: as §1, §2, §7, §4
(§8) RNA was additional in solution treated with Turbo DNase (Ambion) for 30 min at 37 °C and repurified over an RNeasy column. […]

[6] = test system: dopamine and the adrenergic receptors; settings: U2OS cells, agonist 100 pM to 100 µM
Procedure: as §1, §2, §7, §4, §8

dopamine receptor DRD2 [7] = molecular target: T5, dopamine receptor DRD2 (Homo sapiens, UniProt P14416); test: multiplexed GPCRprofiler assay in U2OS cells; format: cell-based
T5 sequence (P14416 1-414 isoform P14416-2): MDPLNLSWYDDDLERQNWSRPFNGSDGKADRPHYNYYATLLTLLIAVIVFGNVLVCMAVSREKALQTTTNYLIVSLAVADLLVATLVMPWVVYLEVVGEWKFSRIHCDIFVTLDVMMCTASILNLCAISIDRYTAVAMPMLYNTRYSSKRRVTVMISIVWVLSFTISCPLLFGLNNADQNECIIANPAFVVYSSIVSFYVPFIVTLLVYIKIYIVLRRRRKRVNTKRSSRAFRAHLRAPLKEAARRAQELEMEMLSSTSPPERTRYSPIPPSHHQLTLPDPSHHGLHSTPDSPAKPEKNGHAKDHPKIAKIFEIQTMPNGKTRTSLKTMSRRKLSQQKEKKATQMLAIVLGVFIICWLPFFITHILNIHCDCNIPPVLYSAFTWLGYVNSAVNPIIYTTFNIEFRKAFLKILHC

DRD2 = settings: ref PubChem, Supplementary refs 1, 4,5, 12–14; cited from earlier work
HTR2A serotonin receptor = HTR2A serotonin receptor (Homo sapiens, UniProt P28223); test: single GPCR split TEV assay, luciferase readout (β-arrestin2 recruitment); format: cell-based; settings: standard single luciferase GPCR split TEV assay, validation (Fig. 4f); read-out: IC50 of HTR2A receptor inhibition
HTR2A serotonin receptor, sequence (P28223 81-471 limits assumed): as the sequence (P28223 81-471 limits assumed) above
Source text: (§9) GPCR split TEV assays allow monitoring ligand-dependent GPCR activities using the stimulation-dependent interaction of β-arrestin2 and a candidate GPCR. […] To do this, the NTEV fragment and the artificial transcription factor GAL4-VP16 (GV) were fused to the C-terminal end of a candidate GPCR, separated by a TEV cleavage site (tevS) (Fig. 1a,b). To improve the stability of the interaction between a given GPCR and the arrestin, a short sequence from the C-terminal end of the human arginine vasopressin receptor 2 (AVPR2) (abbreviated V2R) was introduced between a candidate GPCR and NTEV[17],[27]. V2R contains multiple phosphorylation sites for GRKs. These sites provide, when phosphorylated, enhanced binding of β-arrestin.
For these assays, cells were transiently transfected with GPCR split TEV components and reporters, which were allowed to express for 20 h. […] For antagonistic assays, compounds were added 1 h before agonist to ensure proper incubation (Supplementary Fig. S1b). For clarity, varying experimental conditions, such as plate formats, for applied assay formats are summarized in Supplementary Table S3.
For luciferase assays cells were plated on 96-well white plates at 4 × 10^4 cells/well (PC12) one day before the experiment. The assays were performed with 6 wells as replicates per condition. […]

[8] = test system: T6, α-adrenergic receptor ADRA2B; test: multiplexed GPCRprofiler assay in U2OS cells; format: cell-based, human
T6 construct: ORFs of GPCRs were PCR amplified; expressed in transfected cells; host or cells: U2OS (multiplexed assays)
Procedure: as §1, §2, §3, §4, §5, §6

dopamine receptor DRD2 [9] = molecular target: T5, dopamine receptor DRD2; test: standard single luciferase GPCR split TEV assay; format: cell-based; settings: validation (Fig. 4e), read-out: IC50 of DRD2 receptor inhibition
Source text: as §9
For luciferase assays cells were plated on 96-well white plates at 4 × 10^4 cells/well (PC12) one day before the experiment. The assays were performed with 6 wells as replicates per condition. […] Plasmids and lipofectamine 2000 transfection reagent (Invitrogen) were diluted in opti-MEM (Gibco) and incubated for 20 min at room temperature. Medium was removed from cells, the transfection-mix was added and the plates incubated for 2 h at 37 °C, followed by the adding of double-volume of culture medium to dilute transfection reagents. […]

[10] = U2OS cells, drug 1 h before agonist-mix (1 µM each)

SMILES: O=C1CCc2ccc(OCCCCN3CCN(c4cccc(Cl)c4Cl)CC3)cc2N1 [Aripiprazole]
drug-induced effect, GPCRprofiler [1]: Antagonist | antagonistic effect on ADRA2C [1]: inhibited | drug-induced effect, GPCRprofiler (histamine receptor HRH1): Antagonist | antagonistic effect on HRH1 (histamine receptor HRH1): inhibited | partial agonism on HTR1A (serotonin receptor HTR1A): not detected | agonistic effect on HTR2A (drug alone) (serotonin receptor HTR2A [2]; U2OS cells): concentration-dependent agonistic effect | agonistic effect on HTR2A (drug alone) (serotonin receptor HTR2A [2]; U2OS cells, listed as aripiprazole): subtle agonistic effects | effect on HTR2A reported in the literature (HTR2A [3]): weak partial agonistic effect | drug effect, IUPHAR (HRH1): Antagonist | drug effect, PubChem (HRH1; ref PubChem, Supplementary refs 1, 4–6, 17): Antagonist | drug effect, PubChem (ADRA2C): Antagonist | drug effect, PubChem (ADRA2B): Antagonist | drug effect, PubChem (HTR2A [4]): Antagonist

activation of HTR2A by non-cognate agonist (serotonin receptor HTR2A [5]): activation | activation of HTR5A by non-cognate agonist (serotonin receptor HTR5A): activated by dopamine in U2OS cells only | signals of both receptor subfamilies (dopamine and adrenergic) upon stimulation [6]: elevated signals | activation of HTR2A by non-cognate agonist (serotonin receptor HTR2A [2]; U2OS cells): activation
SMILES: NCCc1ccc(O)c(O)c1 [Dopamine, Dopamine hydrochloride]

drug-induced effect, GPCRprofiler (dopamine receptor DRD2 [7]; Supplementary Table S4, DRD2): Antagonist | IC50 (HTR2A serotonin receptor): 3.65 nM | drug-induced effect, GPCRprofiler (serotonin receptor HTR2A [2]; Supplementary Table S4, HTR2A): Antagonist | IC50 (dopamine receptor DRD2 [9]): 188 nM
SMILES: Cc1nc2n(c(=O)c1CCN1CCC(c3noc4cc(F)ccc34)CC1)CCCC2O (stereo not shown) [Paliperidone]
antagonistic effect on DRD2 (dopamine receptor DRD2 [7]; [10]): dose-dependent inhibition of receptor activity | drug effect, PubChem (DRD2): Antagonist | drug-induced effect, GPCRprofiler [1]: Antagonist | antagonistic effect on ADRA2C [1]: dose-dependent inhibition of receptor activity | drug-induced effect, GPCRprofiler ([8]; Supplementary Table S4, ADRA2B): Antagonist | antagonistic effect on ADRA2B [8, 10]: dose-dependent inhibition of receptor activity | drug-induced effect, GPCRprofiler (histamine receptor HRH1): Antagonist | antagonistic effect on HRH1 (histamine receptor HRH1): dose-dependent inhibition of receptor activity | antagonistic effect on HTR2A (serotonin receptor HTR2A [2]; [10]): dose-dependent inhibition of receptor activity | drug effect, IUPHAR (HRH1): Antagonist | drug effect, PubChem (ADRA2B): Antagonist | drug effect, IUPHAR (HTR2A [4]; ref IUPHAR, Supplementary refs 2,3, 7, 10,11): Antagonist | drug effect, PubChem (HTR2A [4]): Antagonist
